From PubChem BioAssay (NCI) come the findings set out here.

“And” between values parts separate entries of the source, which are not always exact repeats. Identical values can stand only once.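 Following 48 hours of exposure in 96-well plates, responses at five concentrations were used to interpolate endpoints linearly. GI50 = concentration required for 50% inhibition of growth. TGI marks complete inhibition of growth.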

Test systems include UACC-257 melanoma; CAKI-1 renal; LOX IMVI melanoma; SW-620 colon; HL-60(TB) leukemia; HOP-92 NSCLC; OVCAR-3 ovarian; SK-MEL-28 melanoma; A498 renal; SN12C renal.
Experiment in all cases: growth of human tumour cells (NCI), 48 h

With `CO/C(=N\N=C\c1cccc(C(F)(F)F)c1)c1ccncc1`, the TGI in the test with UACC-257 melanoma is above 100 µM; in the test with CAKI-1 renal, 9.48 µM; with LOX IMVI melanoma it was above 100 µM; in the test with SW-620 colon, above 100 µM; in the test with HL-60(TB) leukemia, 7.77 µM and 18 µM; in the test on HOP-92 NSCLC it was above 100 µM. In addition, the TGI is 84.1 µM in the test with OVCAR-3 ovarian, above 100 µM in the test with SK-MEL-28 melanoma, 42.8 µM in the test with A498 renal and above 100 µM with SN12C renal. Also, the GI50 in the test with LOX IMVI melanoma is 10.2 µM; in the test with HL-60(TB) leukemia, 2.45 µM; in the test with SN12C renal, 16.7 µM.
For the compound `CN(CCN(C)C(=O)CCOS(C)(=O)=O)C(=O)CCOS(C)(=O)=O`, the TGI in the test on UACC-257 melanoma, in the test on CAKI-1 renal, in the test on LOX IMVI melanoma, with SW-620 colon, in the test with HL-60(TB) leukemia and in the test with HOP-92 NSCLC was above 100 µM throughout. The TGI with OVCAR-3 ovarian, with SK-MEL-28 melanoma, in the test with A498 renal and in the test on SN12C renal was above 100 µM throughout.
Regarding `COc1ccc2c(c1)[C@@]1(C)CCC3c4ccc(O)cc4CCC3C1C2` (stereo partly drawn), the GI50 in the test on UACC-257 melanoma is 17.7 µM; in the test on CAKI-1 renal, 17.1 µM; with LOX IMVI melanoma it was 11 µM; in the test with SW-620 colon, 16.9 µM; with HL-60(TB) leukemia, 18.1 µM; in the test on HOP-92 NSCLC it was 17.2 µM. In addition, the GI50 is 14.7 µM in the test on OVCAR-3 ovarian, 15.2 µM in the test with SK-MEL-28 melanoma, 18.2 µM in the test with A498 renal and 16.8 µM in the test with SN12C renal. Also, the TGI with UACC-257 melanoma is 33.7 µM; in the test with CAKI-1 renal, 32.7 µM; in the test on LOX IMVI melanoma, 24.2 µM; in the test with SW-620 colon it was 36.1 µM; in the test with HL-60(TB) leukemia, 39.1 µM; with HOP-92 NSCLC, 33.9 µM. Besides, the TGI was found to be 29.1 µM in the test on OVCAR-3 ovarian, 30.3 µM in the test with SK-MEL-28 melanoma, 33.3 µM in the test on A498 renal and 32 µM with SN12C renal.
For the compound `NC1=C(Cl)C(=O)c2ccccc2C1=O`, the TGI came to 8.38 µM with UACC-257 melanoma; 34.1 µM with CAKI-1 renal; 7.91 µM in the test with LOX IMVI melanoma; 14.6 µM with SW-620 colon; 45.4 µM in the test on HL-60(TB) leukemia; 33.7 µM in the test on HOP-92 NSCLC. Besides, the TGI is 7.29 µM in the test on OVCAR-3 ovarian, 11.3 µM in the test on SK-MEL-28 melanoma, 35.7 µM in the test with A498 renal and 15.9 µM in the test on SN12C renal.
For the compound `CCN1CCC(CC(=O)Nc2n[nH]c3nc(-c4cccs4)c(Br)cc23)CC1`, the GI50 with UACC-257 melanoma is 5.58 µM; in the test on CAKI-1 renal, 4.29 µM; in the test on LOX IMVI melanoma, 5.11 µM; with SW-620 colon, 11.4 µM; with HL-60(TB) leukemia, 7.31 µM; with HOP-92 NSCLC, above 24.1 µM. The GI50 with OVCAR-3 ovarian is 10.4 µM; with SK-MEL-28 melanoma, 5.31 µM; in the test with A498 renal, 7.87 µM; with SN12C renal it was 9.51 µM. Also, the TGI in the test with UACC-257 melanoma was 10.8 µM; in the test on CAKI-1 renal, above 25 µM; in the test with LOX IMVI melanoma, 14.1 µM; in the test with SW-620 colon, above 25 µM; with HL-60(TB) leukemia, 14.8 µM; in the test with HOP-92 NSCLC it was above 25 µM. The TGI in the test on OVCAR-3 ovarian was above 25 µM; in the test with SK-MEL-28 melanoma, 9.85 µM; in the test on A498 renal, above 25 µM; with SN12C renal it was above 25 µM.
Regarding `Cc1ccc2nc(N/N=C/c3cccc(C)n3)cc(C)c2c1`, the TGI in the test on UACC-257 melanoma is 31.8 µM; in the test with CAKI-1 renal, 31 µM; with LOX IMVI melanoma, 31.6 µM; with SW-620 colon it was 40.4 µM; in the test on HL-60(TB) leukemia it was above 100 µM; with HOP-92 NSCLC, 37.2 µM. Further, the TGI in the test on OVCAR-3 ovarian amounted to 30 µM; in the test on SK-MEL-28 melanoma, 33.2 µM; with A498 renal, 37.6 µM; in the test on SN12C renal, 34.2 µM.
As to `O=CN1CCN(C=S)CC1`, the TGI with UACC-257 melanoma, in the test with CAKI-1 renal, in the test on LOX IMVI melanoma, in the test with SW-620 colon, in the test with HL-60(TB) leukemia and in the test on HOP-92 NSCLC was above 100 µM in each case. The TGI in the test on OVCAR-3 ovarian, with SK-MEL-28 melanoma, with A498 renal and in the test with SN12C renal was above 100 µM in each case.
Turning to `NC(=O)c1c2c(cc3c(=O)c4ccccc4[nH]c13)CCCC2`, the TGI in the test on UACC-257 melanoma, with CAKI-1 renal, in the test on LOX IMVI melanoma, in the test on SW-620 colon, in the test with HL-60(TB) leukemia and in the test on HOP-92 NSCLC was above 100 µM in each case. Also, the TGI in the test with OVCAR-3 ovarian, with SK-MEL-28 melanoma, in the test on A498 renal and in the test with SN12C renal was above 100 µM each time.
With `COc1ccc(-c2ccccc2)cc1-c1c(Nc2cc(Cl)cc(Cl)c2O)c(=O)c1=O`, the GI50 is 1.44 µM in the test on UACC-257 melanoma; 1.33 µM in the test on CAKI-1 renal; 1.72 µM with LOX IMVI melanoma; 1.7 µM in the test with SW-620 colon; 1.11 µM with HL-60(TB) leukemia; 0.929 µM in the test with HOP-92 NSCLC. Moreover, the GI50 in the test with OVCAR-3 ovarian is 1.28 µM; in the test on SK-MEL-28 melanoma, 2.05 µM; in the test on A498 renal, 0.726 µM; with SN12C renal, 1.48 µM. Further, the TGI is 4.77 µM in the test on UACC-257 melanoma; 4.83 µM in the test with CAKI-1 renal; above 50 µM with LOX IMVI melanoma; above 50 µM in the test on SW-620 colon; 2.54 µM in the test on HL-60(TB) leukemia; 2.81 µM in the test with HOP-92 NSCLC. Moreover, the TGI in the test on OVCAR-3 ovarian was 3.88 µM; with SK-MEL-28 melanoma, above 50 µM; in the test on A498 renal, 2.2 µM; in the test with SN12C renal, above 50 µM.
As to `O=[N+]([O-])c1cccc(-c2cc(-c3cc(Br)ccc3O)[nH]n2)c1`, the GI50 with UACC-257 melanoma was 2.5 µM; with CAKI-1 renal it was 1.81 µM; in the test with LOX IMVI melanoma, 2.73 µM; with SW-620 colon, 2.81 µM; with HL-60(TB) leukemia, 1.15 µM; in the test on HOP-92 NSCLC it was 2.38 µM. For the same compound, the GI50 was 2.1 µM in the test on OVCAR-3 ovarian, 2.88 µM with SK-MEL-28 melanoma, 1.86 µM in the test with A498 renal and 3.19 µM in the test with SN12C renal. For the same compound, the TGI was found to be 6.49 µM with UACC-257 melanoma; 5.17 µM in the test with CAKI-1 renal; 8.62 µM in the test with LOX IMVI melanoma; 12.3 µM in the test with SW-620 colon; 3.45 µM in the test on HL-60(TB) leukemia; 8.08 µM with HOP-92 NSCLC. Also, the TGI was 5.8 µM with OVCAR-3 ovarian, 10.5 µM in the test on SK-MEL-28 melanoma, 8.63 µM with A498 renal and 12.4 µM in the test on SN12C renal.
